# Patent US6407103B2, “Indeno [1,2-c] pyrazol-4-ones and their uses” (Bristol-Myers Squibb Pharma Company, priority 1998, dated 2002)
# Structures can show the parent of a compound that is named as a salt.
row,melting point [°C],Compound
1,169,"O=C(Nc1cccc2c1C(=O)c1c-2n[nH]c1C1CCN(C(=O)C2CCCNC2)CC1)NN1CCOCC1 (stereo not shown) (as salt: TFA) [Example CCLXXXVII, 3-(1-(piperidin-3-ylcarbonyl)piperidin-4-yl)-5-(morpholinocarbamoylamino)indeno[1,2-c]pyrazol-4-one]"
2,158,"CN1CCCC(C(=O)N2CCC(c3[nH]nc4c3C(=O)c3c(NC(=O)NN5CCOCC5)cccc3-4)CC2)C1 (stereo not shown) (as salt: TFA) [Example CCLXXXVIII, 3-(1-(1-methylpiperidin-3-ylcarbonyl)piperidin-4-yl)-5-(morpholinocarbamoylamino)indeno[1,2-c]pyrazol-4-one]"
3,201,"NC1CCCC(C(=O)N2CCC(c3[nH]nc4c3C(=O)c3c(NC(=O)NN5CCOCC5)cccc3-4)CC2)C1 (stereo not shown) (as salt: TFA) [Example CCXC, 3-(1-(3-aminocyclohexylcarbonyl)piperidin-4-yl)-5-(morpholinocarbamoylamino)indeno[1,2-c]pyrazol-4-one]"
4,153,"CN(C)C1CCCC(C(=O)N2CCC(c3[nH]nc4c3C(=O)c3c(NC(=O)NN5CCOCC5)cccc3-4)CC2)C1 (stereo not shown) (as salt: TFA) [Example CCXCI, 3-(1-(3-(dimethylamino)cyclohexylcarbonyl)piperidin-4-yl)-5-(morpholinocarbamoylamino)indeno[1,2-c]pyrazol-4-one]"
5,246,"CO[C@H]1CC[C@H](C(=O)N2CCC(c3[nH]nc4c3C(=O)c3c(NC(=O)NN5CCOCC5)cccc3-4)CC2)CC1 (as salt: TFA) [Example CCXCII, 3-(1-(trans-4-methoxycyclohexylcarbonyl)piperidin-4-yl)-5-(morpholinocarbamoylamino)indeno[1,2-c]pyrazol-4-one]"
6,178,"CO[C@H]1CC[C@@H](C(=O)N2CCC(c3[nH]nc4c3C(=O)c3c(NC(=O)NN5CCOCC5)cccc3-4)CC2)CC1 (as salt: TFA) [Example CCXCIII, 3-(1-(cis-4-methoxycyclohexylcarbonyl)piperidin-4-yl)-5-(morpholinocarbamoylamino)indeno[1,2-c]pyrazol-4-one]"
7,177,"Nc1ccc(CC(=O)N2CCC(c3[nH]nc4c3C(=O)c3c(NC(=O)NN5CCOCC5)cccc3-4)CC2)cc1 (as salt: TFA) [Example CCXCIV, 3-(1-(4-aminobenzylcarbonyl)piperidin-4-yl)-5-(morpholinocarbamoylamino)indeno[1,2-c]pyrazol-4-one]"
8,107,"CN(C)c1ccc(CC(=O)N2CCC(c3[nH]nc4c3C(=O)c3c(NC(=O)NN5CCOCC5)cccc3-4)CC2)cc1 (as salt: TFA) [Example CCXCV, 3-(1-(4-(dimethylamino)benzylcarbonyl)piperidin-4-yl)-5-(morpholinocarbamoylamino)indeno[1,2-c]pyrazol-4-one]"
9,198,"Nc1ccc(C(=O)N2CCC(c3[nH]nc4c3C(=O)c3c(NC(=O)NN5CCOCC5)cccc3-4)CC2)cc1 (as salt: TFA) [Example CCXCVII, 3-(1-(4-aminophenylcarbonyl)piperidin-4-yl)-5-(morpholinocarbamoylamino)indeno[1,2-c]pyrazol-4-one]"
10,189,"CN(C)c1ccc(C(=O)N2CCC(c3[nH]nc4c3C(=O)c3c(NC(=O)NN5CCOCC5)cccc3-4)CC2)cc1 (as salt: TFA) [Example CCXCVIII, 3-(1-(4-(dimethylamino)phenylcarbonyl)piperidin-4-yl)-5-(morpholinocarbamoylamino)indeno[1,2-c]pyrazol-4-one]"
11,263,"O=C(Nc1cccc2c1C(=O)c1c-2n[nH]c1-c1ccc(N2CCNCC2)cc1)NN1CCOCC1 (as salt: TFA) [Example CCXI, 3-(4-piperazinophenyl)-5-(morpholinocarbamoylamino)indeno[1,2-c]pyrazol-4-one]"
12,257,"NC(=O)Nc1cccc2c1C(=O)c1c-2n[nH]c1-c1ccc(N2CCNCC2)cc1 (as salt: TFA) [Example CCXII, 3-(4-piperazinophenyl)-5-(carbamoylamino)indeno[1,2-c]pyrazol-4-one]"
13,257,"NNC(=O)Nc1cccc2c1C(=O)c1c-2n[nH]c1-c1ccc(N2CCNCC2)cc1 (as salt: TFA) [Example CCXIII, 3-(4-piperazinophenyl)-5-(aminocarbamoylamino)indeno[1,2-c]pyrazol-4-one]"
14,243,"CN(C)CC(=O)Nc1cccc2c1C(=O)c1c-2n[nH]c1-c1ccc(N2CCNCC2)cc1 (as salt: TFA) [Example CCXIV, 3-(4-piperazinophenyl)-5-((N,N-dimethylamino)acetamido)indeno[1,2-c]pyrazol-4-one]"
15,245,"CCN1CCN(c2ccc(-c3[nH]nc4c3C(=O)c3c(NC(=O)NN5CCOCC5)cccc3-4)cc2)CC1 (as salt: TFA) [Example CCXIX, 3-(4-(4-ethylpiperazino)phenyl)-5-(morpholinocarbamoylamino)indeno[1,2-c]pyrazol-4-one]"
16,258,"CN(C)C1CCN(c2ccc(-c3[nH]nc4c3C(=O)c3c(NC(=O)NN5CCOCC5)cccc3-4)cc2)CC1 (as salt: TFA) [Example CCXLVIII, 3-(4-(4-(N,N-dimethylamino)piperidino)phenyl)-5-(morpholinocarbamoylamino)indeno[1,2-c]pyrazol-4-one]"
17,259,"O=C(CN1CCOCC1)Nc1cccc2c1C(=O)c1c-2n[nH]c1-c1ccc(N2CCNCC2)cc1 (as salt: TFA) [Example CCXV, 3-(4-piperazinophenyl)-5-(morpholinoacetamido)indeno[1,2-c]pyrazol-4-one]"
18,239,"NCC1CCN(CC(=O)Nc2cccc3c2C(=O)c2c-3n[nH]c2-c2ccc(N3CCNCC3)cc2)CC1 (as salt: TFA) [Example CCXVII, 3-(4-piperazinophenyl)-5-(4-(aminomethyl)piperidinoacetamido)indeno[1,2-c]pyrazol-4-one]"
19,245,"CN1CCN(c2ccc(-c3[nH]nc4c3C(=O)c3c(NC(=O)NN5CCOCC5)cccc3-4)cc2)CC1 (as salt: TFA) [Example CCXVIII, 3-(4-(4-methylpiperazino)phenyl)-5-(morpholinocarbamoylamino)indeno[1,2-c]pyrazol-4-one]"
20,253,"CC(C)N1CCN(c2ccc(-c3[nH]nc4c3C(=O)c3c(NC(=O)NN5CCOCC5)cccc3-4)cc2)CC1 (as salt: TFA) [Example CCXX, 3-(4-(4-isopropylpiperazino)phenyl)-5-(morpholinocarbamoylamino)indeno[1,2-c]pyrazol-4-one]"

row,Compound,melting point [°C]
1,"CC(C)(C)OC(=O)NC1CCC(C(=O)N2CCC(c3[nH]nc4c3C(=O)c3c(NC(=O)NN5CCOCC5)cccc3-4)CC2)CC1 (stereo not shown) (as salt: TFA) [Example CCLXXXV, 3-(1-(4-(t-butoxycarbonylamino)cyclohexylcarbonyl)piperidin-4-yl)-5-(morpholinocarbamoylamino)indeno[1,2-c]pyrazol-4-one]",210
2,"COC[C@H]1CCCN1NC(=O)Nc1cccc2c1C(=O)c1c-2n[nH]c1-c1ccc(C(=O)N2CCN(C(=O)OC(C)(C)C)CC2)s1 (as salt: TFA) [Example CCV, 3-(5-(4-(t-butoxycarbonyl)piperazinocarbonyl)-2-thienyl)-5-(2(R)-(methoxymethyl)pyrrolidinocarbamoylamino)indeno[1,2-c]pyrazol-4-one]",> 300
